Reference: patent publication US20160143884A1, “USE OF TETRAHYDROINDAZOLYLBENZAMIDE AND TETRAHYDROINDOLYLBENZAMIDE DERIVATIVES FOR THE TREATMENT OF HUMAN IMMUNODEFICIENCY VIRUS (HIV) AND ACQUIRED IMMUNE DEFICIENCY SYNDROME (AIDS)” (Esanex, Inc., priority 2014, published 2016)

Key:
[1] = test system: single cycle HIV in SupT1 cells
Procedure: HIV-integration was evaluated in a cell based assay with ALU-PCR read out. Using single cycle virus (Env-deficient, containing Luc, pseudotyped with VSV-g), SupT1 cells were infected for 36 hours. Cells were treated with DMSO, Raltegravir (integrase inhibitor), 500 nM Compound 9, or Nelfinavir (protease inhibitor). It was expected that Raltegravir should affect both Luc and ALU-PCR data and Nelfinavir should not (downstream of both). Cells were split in half-one part for Luc-assays, and one part for ALU-PCR.

[2] = test system: JLAT clones (A2; 9.2); test: HIV-1 reactivation and inhibition of reactivation in JLAT clones (GFP, flow cytometry); assay type: cell-based, human
Procedure: Two JLAT clones (A2; 9.2) were incubated for 24 hours with tumor necrosis factor alpha (TNFα), phorbol myristate 13-acetate (PMA), Compound 9 (9, various doses), and all combinations of these three compounds. JLAT cells make GFP when HIV is reactivated from latency.
J-Lat cells (JLAT 9.2, 5×10^5/mL) were cultured in Gibco RPMI-1640 media, supplemented with 10% (vol/vol) FCS and 5% (vol/vol) penicillin streptomycin at 37° C., 5% CO2 under sterile conditions. For HIV-1 reactivation experiments, 10^6 cells/mL were mixed with TPA (10 nM final, unless otherwise indicated) or TNFα (5 ng/mL final) and immediately 150 μL of cell mix was dispensed into 96-well plates. Compound 9 was added to the 96-well plates in serial dilutions. Cells were incubated for 24 h before analysis by flow cytometry.
JLAT (A2) cells were incubated with the following treatments: media (negative control), DMSO (SNX control), 1 ng/mL TNFα, 2 μM PMA, or these agonists+1, 0.1, 0.01, or 0.001 Compound 9 (left to right in the attached figure). 20 h post incubation, the cells were washed, fixed, and run on a flow cytometer. Media, DMSO, TNFα, and PMA were each run in quadruplicate; all other reactions were run in singlet. >10,000 events (cells) were counted for each treatment. Data are expressed as % GFP+cells (negative cells set by gating on media alone control).

[3] = test system: Tat-mediated activation of the HIV-LTR promoter; test: TAT-mediated transactivation, HIV-LTR-Luc reporter; assay type: cell-based, HIV-1
Procedure: SupT1 cells were transfected with a HIV-LTR-Luc construct (LAI), +/−Tat (pcTAT, subtype B), along with a constitutively active renilla-luciferase construct (to normalize for transfection efficiency). Firefly and renilla activity were monitored (sequentially, same sample) 24 hours post transfection. DMSO was used as a negative control; and Compound 9 was added at 1, 0.1, and 0.001 μM. These reactions were done in singlet (pilot). TZM-bl cells are HeLa derived cells that contain CD4, CCR5, and an integrated HIV promoter (LTR) fused to firefly luciferase. Untransfected cells (LTR) or Tat-transfected cells (LTR+TAT) were incubated with Compound 9 at the indicated doses at the time of transfection. DMSO was used as a negative control. Luciferase activity was measured 20 hours post-transfection using a commercially-available luciferase substrate (Promega) and the results are shown in FIG. 8. […] Repeat results are illustrated in Tat-Experiment 2 graph.

[4] = Cell viability (CellTiter 96 AQueous One) in HepG2 2.2.15; assay type: cell-based; settings: human, HepG2-2.2.15 cells, read-out: Cytotoxicity TC50
Procedure: The anti-HBV assay employed real-time qPCR (TaqMan) to directly measure extracellular HBV DNA copy number. HepG2-2.2.15 cells were plated in 96-well microtiter plates. Only the interior wells were utilized to reduce “edge effects” observed during cell culture; the exterior wells were filled with complete medium to help minimize sample evaporation. After 16-24 hours the confluent monolayer of HepG2-2.2.15 cells was washed and the medium replaced with complete medium containing various concentrations of a test compound in triplicate. 3TC was used as positive control, while media alone was added to cells as negative control (virus control, VC). Three days later the culture medium was replaced with fresh medium containing the appropriately diluted drug. Six days following the initial administration of the test compound, the cell culture supernatant collected, treated with pronase and then used in a real-time quantitative TaqMan qPCR assay. The PCR-amplified HBV DNA was detected in real-time by monitoring increases in fluorescence signals that result from the exonucleolytic degradation of a quenched fluorescent probe molecule that hybridizes to the amplified HBV DNA. […] Antiviral activity was calculated from the reduction in HBV DNA levels (IC50). […] The therapeutic index (TI) was calculated as TC50/IC50.

[5] = test system: Hepatitis B Virus (HBV); test: Anti-HBV assay, real-time qPCR of extracellular HBV DNA in HepG2 2.2.15; assay type: cell-based
Procedure: The anti-HBV assay employed real-time qPCR (TaqMan) to directly measure extracellular HBV DNA copy number. HepG2-2.2.15 cells were plated in 96-well microtiter plates. Only the interior wells were utilized to reduce “edge effects” observed during cell culture; the exterior wells were filled with complete medium to help minimize sample evaporation. After 16-24 hours the confluent monolayer of HepG2-2.2.15 cells was washed and the medium replaced with complete medium containing various concentrations of a test compound in triplicate. 3TC was used as positive control, while media alone was added to cells as negative control (virus control, VC). Three days later the culture medium was replaced with fresh medium containing the appropriately diluted drug. Six days following the initial administration of the test compound, the cell culture supernatant collected, treated with pronase and then used in a real-time quantitative TaqMan qPCR assay. The PCR-amplified HBV DNA was detected in real-time by monitoring increases in fluorescence signals that result from the exonucleolytic degradation of a quenched fluorescent probe molecule that hybridizes to the amplified HBV DNA. For each PCR amplification, a standard curve was simultaneously generated using dilutions of purified HBV DNA. Antiviral activity was calculated from the reduction in HBV DNA levels (IC50). CellTiter 96® AQueous One Solution Cell Proliferation Assay kit (Promega) was employed to measure cell viability which was used to calculate cytotoxicity (TC50). The therapeutic index (TI) was calculated as TC50/IC50.

[6] = test system: VSVg-pseudotyped NL4-3.Luc.E-R- virus; test: microbe, parasite or virus in culture; assay type: cell-based, HIV-1; settings: Human immunodeficiency virus 1, NL43, SUP-T1, read-out: EC50 of inhibition of HIV replication
[7] = MTS staining for PBMC viability to measure cytotoxicity; assay type: cell-based, human; settings: human, PBMCs
From the text: (§1) Pooling (mixing) of mononuclear cells from more than one donor is used to minimize the variability observed between individual donors, which results from quantitative and qualitative differences in HIV infection and overall response to the PHA and IL-2 of primary lymphocyte populations. Each plate contains virus/cell control wells (cells plus virus), experimental wells (drug plus cells plus virus) and compound control wells (drug plus media without cells, necessary for MTS monitoring of cytotoxicity). […] Therefore, infected wells are used in the assessment of both antiviral activity and cytotoxicity. […] The PBMC cultures are maintained for seven days following infection at 37° C., 5% CO2. After this period, cell-free supernatant samples are collected for analysis of reverse transcriptase activity and/or p24 antigen content. Following removal of supernatant samples, compound cytotoxicity is measured by addition of MTS to the plates for determination of cell viability. Wells are also examined microscopically and any abnormalities are noted. MTS Staining for PBMC Viability to Measure Cytotoxicity Protocol: At assay termination, assay plates are stained with the soluble tetrazolium-based dye MTS (CellTiter 96 Reagent, Promega) to determine cell viability and quantify compound toxicity. The mitochondrial enzymes of metabolically active cells metabolize MTS to yield a soluble formazan product. This allows the rapid quantitative analysis of cell viability and compound cytotoxicity. […] At termination of the assay, 20 uL of MTS reagent is added per well. The microtiter plates are then incubated 4-6 hrs at 37° C. The incubation intervals were chosen based on empirically determined times for optimal dye reduction. Adhesive plate sealers are used in place of the lids, the sealed plate is inverted several times to mix the soluble formazan product and the plate is read spectrophotometrically at 490/650 nm with a Molecular Devices Vmax or SpectraMaxPlus plate reader.

[8] = test system: PBMCs; test: as above; assay type: cell-based, human
From the text: as §1

CC1(C)CC(=O)c2c(C(F)(F)F)nn(-c3ccc(C(N)=O)c(N[C@H]4CC[C@H](O)CC4)c3)c2C1 [Compound 9, 4-(6,6-Dimethyl-4-oxo-3-trifluoromethyl-4,5,6,7-tetrahydro-indazol-1-yl)-2-(trans-4-hydroxy-cyclohexylamino)-benzamide]
Integration of HIV-1 viral DNA into host cell [1]: inhibit
Reduction of single cycle HIV ([1]; 500 nM, SupT1 cells infected 36 hours): at least 90%
Increase in GFP positive cells (HIV reactivation) ([2]; JLAT (A2) model): about 2 fold
Inhibition of TNFα or PMA (phorbol ester) induced HIV-1 reactivation ([2]; JLAT A2 and JLAT 9.2 cells): does not inhibit
Tat-mediated transactivation [3]: inhibit
CC50 at 6 days [4]: 73 nM
Activity against hepatitis B virus (in words) [5]: inactive
Selectivity Index TI (TC50/IC50) ([5]; HBV in HepG2 2.2.15): 0.12
IC50 ([5]; Hepatitis B virus, 144 h, HBV in HepG2 2.2.15, six days, read-out: Antiviral Activity IC50 (reduction in HBV DNA levels)): 600 nM
IC90 ([5]; Hepatitis B virus, HBV in HepG2 2.2.15): > 2000 nM
EC50 [6]: 10 nM
CC50 at 7 days [7]: 30 nM
TC 90% (90% cytotoxicity) [8]: >2000 nM
TC 95% (95% cytotoxicity) [8]: >2000 nM
